In patent publication US20250129095A1, “ANNULATED 2-AMINO-3-CYANO THIOPHENES AND DERIVATIVES FOR THE TREATMENT OF CANCER” (Boehringer Ingelheim Int'l GmbH Corp., priority 2021, published 2025) one finds IC50 data, which are given here for 11 molecules.

In one test the target is T1, KRAS (G12D)::SOS1 (Homo sapiens, UniProt P01116, G12D).
T1 construct: KRAS (G12D) 1-169, N-terminal 6His-tag, C-terminal avi-tag; 6His-tag (N); purchased Xtal BioStructures, Inc. (KRAS); Viva Biotech Ltd (SOS1)
The test can be described thus: KRAS::SOS1 AlphaScreen binding assay, KRAS G12D. The conditions noted are these: read-out: KRASG12D IC50. The source says: This assay can be used to examine the potency with which compounds according to the invention binding to (mutated) KRAS inhibit the protein-protein interaction between SOS1 and (mutated) KRAS e.g., KRAS WT, KRAS G12C, KRAS G12D, KRAS G12V, KRAS G13D. […] Low IC50 values in this assay setting are indicative of strong inhibition of protein-protein interaction between SOS1 and KRAS:
These assays measure the inhibitory effect of compounds on KRAS mutant protein-protein interactions using the Alpha Screen technology by Perkin Elmer
The following (mutant) enzyme forms of KRAS and interacting proteins are used in these assays at the given concentrations: • KRAS (G12D) 1-169, N-terminal 6His-tag, C-terminal avi-tag (Xtal BioStructures, Inc.); final assay concentration 10 nM and SOS1 564-1049, N-terminal 229 GST-tag, TEV cleavage site (Viva Biotech Ltd); final assay concentration 5 nM; • KRAS (G12C) 1-169, N-terminal 6His-tag for purification, cleaved off, C-terminal avi-tag, biotinylated, mutations: C51S, C80L, C118S (in house); final assay concentration 7.5 nM and SOS1 564-1049, N-terminal 229 GST-tag, TEV cleavage site (Viva Biotech Ltd); final assay concentration 5 nM; • KRAS (G12V) 1-169, N-terminal 6His-tag for purification, cleaved off, C-terminal avi-tag, biotinylated, TEV cleavage site, mutation: C118S, GDP loaded (in house); final assay concentration 10 nM and SOS1 564-1049, N-terminal 229 GST-tag, TEV cleavage site (Viva Biotech Ltd); final assay concentration 10 nM; • KRAS (G13D) 1-169, N-terminal 6His-tag for purification, cleaved off, C-terminal avi-tag, biotinylated, TEV cleavage site, mutation: C118S, GDP loaded (in house); final assay concentration 10 nM and SOS1 564-1049, N-terminal 229 GST-tag, TEV cleavage site (Viva Biotech Ltd); final assay concentration 10 nM; • KRAS (WT) 1-169, N-terminal 6His-tag for purification, cleaved off, C-terminal avi-tag, biotinylated, TEV cleavage site, mutation: C118S, GDP loaded (in house); final assay concentration 10 nM and SOS1 564-1049, N-terminal 229 GST-tag, TEV cleavage site (Viva Biotech Ltd); final assay concentration 10 nM.
Test compounds dissolved in DMSO are dispensed onto assay plates (Proxiplate 384 PLUS, white, PerkinElmer; 6008289) using an Access Labcyte Workstation with the Labcyte Echo 55×. For the chosen highest assay concentration of 100 μM, 150 nL of compound solution are transferred from a 10 mM DMSO compound stock solution. A series of eleven fivefold dilutions per compound are transferred to the assay plate, compound dilutions are tested in duplicates. DMSO are added as backfill to a total volume of 150 nL.
The assays run on a fully automated robotic system in a darkened room below 100 Lux. To 150 nl of compound dilution 10 μl of a mix including KRAS mutant protein, SOS1 (final assay concentrations see above) and GDP nucleotide (Sigma G7127; final assay concentration 10 μM) in assay buffer (1×PBS, 0.1% BSA, 0.05% Tween 20) are added into columns 1-24.
After 30 minutes incubation time 5 μl of Alpha Screen bead mix in assay buffer are added into columns 1-23. Bead mix consists of AlphaLISA Glutathione Acceptor Beads (PerkinElmer, Cat No AL109) and AlphaScreen Streptavidin Donor Beads (PerkinElmer Cat No 6760002) in assay buffer at a final assay concentration of 10 μg/ml each.
Plates are kept at room temperature in a darkened incubator. After an additional 60 minutes incubation time the signal is measured in a PerkinElmer Envision HTS Multilabel Reader using the AlphaScreen specs from PerkinElmer.
Each plate contains up to 16 wells of a negative control depending on the dilution procedure (platewise or serial) (DMSO instead of test compound; with KRAS mutant::SOS1 GDP mix and bead mix; column 23) and 16wells of a positive control (DMSO instead of test compound; with KRAS mutant::SOS1 GDP mix w/o bead mix; column 24).
As internal control known inhibitors of KRAS mutant::SOS1 interaction can be measured on each compound plate. […]

The next test deals with AsPC-1 cells. The test can be described thus: AsPC-1 CTG proliferation assay (120 h) (pancreatic cancer, G12D). Particulars: Homo sapiens, ASPC1. It counts as cell-based. As to the method: The CTG assay is designed to measure quantitatively the proliferation of AsPC-1 cells (ATCC CRL-5985), using the CellTiter Glow Assay Kit (Promega G7571). Cells are grown in RPMI medium (ATCC) supplemented with Fetal Calf Serum (Life Technologies, Gibco BRL, Cat. No. 10270-106). On “day 0” 2000 AsPC-1 cells are seeded in 60 μL RPMI ATCC+10% FCS+ Penstrep in a 384-well plate, flat and clear bottom (Greiner, PNr. 781091). Cells are then incubated in the plates at 37° C. in a CO2 incubator overnight. On day 1, compounds (10 mM stock in DMSO) are added with the ECHO acoustic liquid handler system (Beckman Coulter), including DMSO controls. Plates are incubated for 120 h, and cell viability is measured using CellTiter-Glo luminescent cell viability reagent (Promega product code G7570). Viability (stated as percent of control) is defined as relative luminescence units RLU of each well divided by the RLU of cells in DMSO controls.

For the next test, the system named is NCI-H358 cells. The test can be described thus: NCI-H358 CTG proliferation assay (120 h) (NSCLC, G12C). Format: cell-based. The conditions noted are these: Homo sapiens. How it is done: Additional Proliferation Assays with Mutant Cancer Cell Lines • NCI-H358 CTG proliferation assay (120 h) (NSCLC, G12C)
NCI-H358 cells (ATCC No. CRL-5807) are dispensed into black 384-well plates, flat and clear bottom (Greiner, PNr. 781091) at a density of 200 cells per well in 60 μl RPMI-1640 ATCC-Formulation (Gibco #A10491)+10% FCS (fetal calf serum). […] For the TO time point measurement, untreated cells are analyzed at the time of compound addition. Plates are incubated for 120 h, and cell viability is measured using CellTiter-Glo luminescent cell viability reagent (Promega product code G7570). Viability (stated as percent of control) is defined as relative luminescence units RLU of each well divided by the RLU of cells in DMSO controls.

T1 sequence (P01116 1-169 isoform P01116-2 G12D): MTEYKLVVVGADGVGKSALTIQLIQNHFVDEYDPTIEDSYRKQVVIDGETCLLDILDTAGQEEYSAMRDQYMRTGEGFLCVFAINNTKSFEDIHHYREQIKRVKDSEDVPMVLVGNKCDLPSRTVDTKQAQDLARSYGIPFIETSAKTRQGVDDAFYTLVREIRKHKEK

In the case of `C[C@H](Oc1cc(O[C@H]2CN(C)C(C)(C)C2)nc(-c2noc3c2CCC[C@@]32CCCc3sc(N)c(C#N)c32)n1)[C@@H]1CCCN1C` [II-19], the IC50 at KRAS (G12D)::SOS1 was determined as 1 nM; in the test on AsPC-1 cells it was 1420 nM; in the test with NCI-H358 cells, 3270 nM.

As to `C[C@H](Oc1cc(O[C@@H]2CNC2(C)C)nc(-c2noc3c2CCC[C@@]32CCCc3sc(N)c(C#N)c32)n1)[C@@H]1C[C@@H](F)CN1C` [II-31], the IC50 at KRAS (G12D)::SOS1 came to 1 nM; in the test with AsPC-1 cells, 25 nM; in the test on NCI-H358 cells it was 119 nM.

As to `C[C@H](Oc1cc(Nc2cnccn2)nc(-c2noc3c2CCC[C@@]32CCCc3sc(N)c(C#N)c32)n1)[C@@H]1CCCN1C` [II-14], the IC50 on KRAS (G12D)::SOS1 is 3 nM; in the test with AsPC-1 cells it was 3180 nM; with NCI-H358 cells it was 558 nM.

Regarding `COCCOc1cc(O[C@@H](C)[C@@H]2CCCN2C)nc(-c2noc3c2CCC[C@@]32CCCc3sc(N)c(C#N)c32)n1` [II-5], the IC50 at KRAS (G12D)::SOS1 stood at 1 nM; in the test with AsPC-1 cells, 2550 nM; in the test with NCI-H358 cells, 339 nM.

Turning to `C[C@H](Oc1cc(Sc2ncccn2)nc(-c2onc3c2CCC[C@@]32CCCc3sc(N)c(C#N)c32)n1)[C@@H]1CCCN1C` [Example I-7], the figures for the IC50 at KRAS (G12D)::SOS1, in the test on AsPC-1 cells and in the test with NCI-H358 cells were 6 nM, 10300 nM and 5620 nM, respectively.

In the case of `C[C@H](Oc1cc(Nc2ncco2)nc(-c2noc3c2CCC[C@@]32CCCc3sc(N)c(C#N)c32)n1)[C@@H]1CCCN1C` [II-13], the IC50 on KRAS (G12D)::SOS1 came out at 2 nM; in the test on AsPC-1 cells, 966 nM; in the test on NCI-H358 cells, 146 nM.

Regarding `C[C@H](Oc1cc(Nc2ccccn2)nc(-c2onc3c2CCC[C@@]32CCCc3sc(N)c(C#N)c32)n1)[C@@H]1CCCN1C` [Example I-6], the IC50 at KRAS (G12D)::SOS1 was 4 nM; in the test on AsPC-1 cells it was 3360 nM; in the test with NCI-H358 cells, 1360 nM.

Regarding `C[C@H]1CN(C)CCCN1c1cc(O[C@@H]2CNC2(C)C)nc(-c2noc3c2CCC[C@@]32CCCc3sc(N)c(C#N)c32)n1` [II-28], the IC50 amounted to 1 nM on KRAS (G12D)::SOS1, 443 nM in the test on AsPC-1 cells and 952 nM in the test on NCI-H358 cells.

In the case of `C[C@H](Oc1cc(Oc2ccon2)nc(-c2noc3c2CCC[C@@]32CCCc3sc(N)c(C#N)c32)n1)[C@@H]1CCCN1C` [II-3], the IC50 on KRAS (G12D)::SOS1 is 2 nM; with AsPC-1 cells, 1980 nM; in the test with NCI-H358 cells, 275 nM.

`C[C@H](Oc1cc(OCC2(N(C)C)COC2)nc(-c2onc3c2CCC[C@@]32CCCc3sc(N)c(C#N)c32)n1)[C@@H]1CCCN1C` [Example I-8]: the results for the 50% inhibitory concentration (IC50) on KRAS (G12D)::SOS1, in the test with AsPC-1 cells and with NCI-H358 cells were 2 nM, 272 nM and 76 nM, respectively.

For the molecule `C[C@H](Oc1cc(Nc2ccncn2)nc(-c2noc3c2CCC[C@@]32CCCc3sc(N)c(C#N)c32)n1)[C@@H]1CCCN1C` [II-15], the figures for the IC50 on KRAS (G12D)::SOS1, with AsPC-1 cells and in the test with NCI-H358 cells were 3 nM, 3550 nM and 123 nM, respectively.
